Assay results published in publication PMC7130106 (Drug Design, Development and Therapy, 2020).
“Also recorded” adds a separate entry of the source.

Columns and labels:
[1] = system: L. donovani promastigotes; conditions: read-out: IC50 on L. donovani promastigotes; ref 38 (Patterson et al); cited from earlier work
[2] = co-administered with tenofovir, efavirenz, ritonavir and rifampin; cited from earlier work
[3] = system: intracellular amastigote stages of L. donovani; assay: Synergy evaluation, combination index method with amphotericin B; assay type: cell-based, Leishmania donovani
[4] = cited from earlier work
L. mexicana = conditions: read-out: IC50 on L. mexicana; ref 28 (Berry et al); cited from earlier work
[5] = system: various clinical isolates of L. donovani; conditions: read-out: lowest IC50, L. donovani isolates obtained from Ethiopia; ref 38 (Patterson et al); cited from earlier work
[6] = system: Leishmania donovani promastigotes; assay type: cell-based

## C[C@]1(COc2ccc(N3CCC(Oc4ccc(OC(F)(F)F)cc4)CC3)cc2)Cn2cc([N+](=O)[O-])nc2O1 [MMV688262, delamanid]
[1]
  IC50: 15 nM
[2]
  interaction with anti-retroviral and anti-TB drugs: no clinically relevant interaction
[3]
  synergistic activity with amphotericin B: synergistic effect; also recorded: synergistic activity
[4]
  renal excretion: < 5%
[4]; in words
  volume of distribution: high volume of distribution
L. mexicana
  IC50: 1780 nM
[5]
  IC50: 86.5 nM

## CC(C)(C)C(O)C(Oc1ccc(-c2ccccc2)cc1)n1cncn1 (stereo not drawn) [MMV688942]
[6]; 1 μM, 72 h, average of two independent experiments in triplicate
  inhibition of promastigotes in primary screening: considerable activity
[6]; promastigotes
  dose-dependent inhibitory effect in subsequent dose titration assay: failed to demonstrate a dose-dependent inhibitory effect
